Results reported in patent publication US20200037609A1, “HERBICIDAL COMPOSITIONS AND METHODS OF USE THEREOF” (The Regents of the University of California, priority 2017, published 2020).
Entries after “also recorded” stand apart in the source; their conditions may differ.

What was measured:
Arabidopsis thaliana = assay: Agar-based plant growth inhibition assay on MS media; format: in vivo; details: for growth of A. thaliana on MS media: 50 μM aspterric acid
Method: Agar-based growth inhibition assays were carried out on MS media (4.33 g Murashige and Skoog basal medium, 20 g sucrose, and 10 g Agar per liter MS media, pH was adjusted to 5.7 using KOH). Aspterric acid at a final concentration of 50 μM was included in the experimental media. DMSO at final concentration of 1% was used to increase the solubility of aspterric acid. The control MS media contained the same amount of DMSO, but no aspterric acid. Sterilized Arabidopsis thaliana seeds were plated on MS media. After 2 days of cold treatment at 4° C. in the dark, plates were transferred to standard growing condition (16 hour light and 8 hour dark at 22° C.) to geminate. After germination on day 4, the seedlings were transferred to MS media containing 50 μM aspterric acid. MS media containing only DMSO was used as a control. Images were taken at day 8 and day 12 to assay growth inhibition activity of aspterric acid on Arabidopsis thaliana.
Growth inhibition assay of plants on plates or in the tubes. MS (2.16 g/L Murashige and Skoog basal medium, 8 g/L sucrose, 8 g/L agar) media was used to test the growth inhibition of AA on A. thaliana, Solanum lycopersicum, and Zea mays. A. thaliana, S. lycopersicum, G. max and Z. mays were grown under long day condition (16/8 h light/dark) using cool-white fluorescence bulbs as the light resource at 23° C. AA was dissolved in ethanol and added to the media before inoculating strains or growing plants. The media of control treatment contains the same amount of ethanol, but without AA.

[1] = system: pollen development in Arabidopsis thaliana; assay: Pollen development in AA treated plants; format: in vivo; details: treated before flowering; listed as AA
Streptomyces sp. Mg1 = assay: Streptomyces growth inhibition assay; format: cell-based; details: 250 μM aspterric acid
Method: Streptomyces sp. Mg1 was plated onto MS media either with or without 250 μM aspterric acid. Plates were incubated at 28° C.

[2] = target: T1, Arabidopsis thaliana housekeeping DHAD (pDHAD) (Arabidopsis thaliana, UniProt Q9LIR4); assay: DHAD enzymatic inhibition assay (phenylhydrazine derivatization, LC-MS); format: biochemical
T1 construct: […]; 6xHis (N); made in house; host or cells: E. coli BL21 (DE3)
T1 sequence (Q9LIR4 35-608): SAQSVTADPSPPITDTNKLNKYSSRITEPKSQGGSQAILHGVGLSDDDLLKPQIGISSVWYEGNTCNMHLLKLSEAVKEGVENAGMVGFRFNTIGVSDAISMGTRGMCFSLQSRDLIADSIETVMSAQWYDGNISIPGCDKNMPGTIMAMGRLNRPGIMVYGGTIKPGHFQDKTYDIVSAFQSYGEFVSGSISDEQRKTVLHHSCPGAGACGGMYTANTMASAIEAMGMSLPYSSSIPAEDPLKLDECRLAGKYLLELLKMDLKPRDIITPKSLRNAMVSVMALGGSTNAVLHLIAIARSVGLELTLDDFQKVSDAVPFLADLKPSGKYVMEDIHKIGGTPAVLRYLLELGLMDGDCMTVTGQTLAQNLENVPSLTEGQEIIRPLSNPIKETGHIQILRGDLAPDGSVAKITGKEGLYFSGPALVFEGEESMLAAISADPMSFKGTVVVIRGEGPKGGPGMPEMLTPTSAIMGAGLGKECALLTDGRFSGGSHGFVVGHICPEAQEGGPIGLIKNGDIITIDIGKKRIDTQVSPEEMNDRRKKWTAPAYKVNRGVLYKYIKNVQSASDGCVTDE
Method: Enzymatic activity reactions were carried out in […] volumes containing 50 mM storage buffer, 10 mM (±)-Sodium 2,3-dihydroxyisovalerate hydrate (DHAD substrate) and 1 μM purified DHAD enzyme. After incubation for 30 minutes at 30° C., the reaction was stopped by adding an equal volume of ethanol. 1/10 volumes of 100 mM phenylhydrozine was added at room temperature for 30 minutes to derivatize the DHAD-synthesized molecule (3-methyl-2-oxo-butanoic acid) into a detectable derivatization product (DDP). See FIG. 5A for an overview of reactions.
Inhibition assays were carried out according to the reactions described above. First, phenylhydrozine was added to 3-methyl-2-oxo-butanoic acid to validate the derivatization reaction. Next, DHAD substrate was incubated with 1 μM purified DHAD enzyme from A. thaliana (with or without DMSO) then derivatized with phenylhydrozine to validate the activity of the purified DHAD enzyme. Finally, DHAD substrate was incubated with 1 μM purified DHAD enzyme from A. thaliana and 1 mM aspterric acid in DMSO then derivatized with phenylhydrozine to determine if DHAD was inhibited by aspterric acid. 20 μL of the reaction mixture was subject to LC-MS analysis, and DDP was detected by UV absorption at 350 nm. The area of the peak that corresponded to DDP was used to quantify the amount of (±)-Sodium 2,3-dihydroxyisovalerate hydrate that was converted into DDP.
Inhibition assays were carried out according to the reactions described above by incubating purified DHAD enzymes (either the housekeeping DHAD from Aspergillus terreus, the housekeeping DHAD from Arabidopsis thaliana, or AstD from Aspergillus terreus) with aspterric acid at various concentrations. For AstD, up to 8 mM of aspterric acid was tested. […] The half maximal inhibitory concentration (IC50) and the effect of aspterric acid on the enzyme kinetics of each purified DHAD enzyme was calculated based on the initial reaction rates observed in the inhibition assays.
Biochemical assay of DHADs. […] The area of the HPLC peak with UV absorption at 350 nm was used to quantify the amount of 6. […]

CC(C)=C1CC[C@]23CO[C@H](C2)[C@@](O)(C(=O)O)CC[C@@H]13 [aspterric acid]
growth of A. thaliana on MS media (Arabidopsis thaliana): significant vegetative growth inhibition
growth of A. thaliana on MS media (Arabidopsis thaliana; listed as AA): potently inhibit
growth of wild-type A. thaliana on media (Arabidopsis thaliana; 100 μM AA): strongly inhibited
pollen formation in AA treated A. thaliana [1]: failed to form normal pollen; also recorded: depleted of healthy and mature pollen
growth of Streptomyces on MS media (Streptomyces sp. Mg1): inhibited the growth
pDHAD activity in presence of AA ([2]; 10 μM AA): abolished pDHAD activity
DHAD enzymatic activity in presence of aspterric acid ([2]; 1 mM aspterric acid, 1 μM enzyme): completely inhibited
mode of inhibition of pDHAD ([2]; kinetic analyses): competitive inhibitor
